Assays:
[1] = test system: EV71-induced autophagy (AKT, JNK, PI3KIII, LC3II, Beclin-1); experiment: Western blot of autophagy proteins in EV71-infected Vero cells; type: cell-based, African green monkey; settings: EV71 H, MOI = 0.1; 24 h treatment
Text: EV71 infection triggers autophagy, which provides a support for EV71 replication. Both JNK and PI3KIII proteins as upstream activators, play important roles in regulating autophagy, and inhibition of corresponding signaling pathway could down-regulate autophagy. Otherwise, AKT, as an inhibitor of autophagy factor, could inhibit autophagy with its activation. To further understand whether 2d still affected autophagy after structure modification, the inhibition of activation AKT and phosphorylation of JNK and PI3KIII proteins were also carried out using BBR as a reference.
(§1) Cells were lysed in the M-PER mammalian protein extraction reagent (Thermo, Rockford, IL, USA) containing halt protease inhibitor single-use cocktail (Thermo). The protein concentration was determined by BCA Protein Assay Kit (Thermo). Equal amount of samples (15 μg proteins) were denatured and applied to sodium dodecyl sulfate-polyacrylamide gel electrophoresis (SDS-PAGE), and then electrophoresis products were transferred to a polyvinylidenefluoride (PVDF) film and blocked by 5% (w/v) milk or BSA at room temperature. An hour later, PVDF membranes were incubated at room temperature with specific primary antibody. After a standard washing, membranes were incubated with horse radish peroxidase (HRP)-labeled secondary antibody. The signals were detected using ECL detection kit (GE Healthcare Life Sciences, Pittsburgh, PA, USA). The primary antibodies used in the experiment included β-actin, p-p44/p42 MAPK, p44/p42 MAPK, p-MEK, MEK, p-JNK, JNK, p-AKT, AKT, PI3KIII, LC3B, Beclin-1 (Cell Signaling Technology, Danvers, MA, USA), and EV71-VP1 (Abnova, Taibei, China). HRP-labeled secondary antibodies included goat anti-rabbit and anti-mouse HRP-labeled antibodies (Cell Signaling Technology).
Figure 4 Compound 2d inhibits EV71-induced autophagy. Vero cells were mock-infected or infected with EV71 (H, MOI = 0.1) for 1 h. The cells were then treated with compound 2d and BBR for 24 h. The cells were harvested and proteins were examined by western blot.

[2] = test system: EV71 SHZH98 strain (genotype C4); experiment: CPE inhibition assay for anti-EV71, SHZH98 strain; type: cell-based, enterovirus 71 (EV71); settings: Enterovirus A, EV71; Vero cells; CPE; calculated on the organic part; n = 3; read-out: SHZH98 Strain IC50
How it was run: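 Vero cells infected with 100 × TCID50 EV71 for 1 h at 37 °C in serum-free medium, unbound virus removed, then compounds added for 72 h. IC50 from inhibition of virus-induced CPE; TC50 as concentration giving 50% CPE at 72 h, with selectivity index; crystal violet staining for imaging.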

[3] = test system: Vero cells; experiment: Cytotoxicity assay (CCK) in Vero cells; type: cell-based, African green monkey
How it was run: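 Vero cells seeded at 3 × 10^4 cells/well were exposed overnight-plated to a range of compound concentrations in duplicate for 48 h. Viability was measured by CCK at 450 nm. TC50 is the concentration giving 50% growth inhibition versus controls, calculated by the Reed and Muench method.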

[4] = test system: MEK/ERK signaling pathway; experiment: Western blot of MEK/ERK phosphorylation in EV71-infected Vero cells; type: cell-based, African green monkey; settings: EV71 H, MOI = 0.1; 24 h treatment
Text: The activation of the MEK/ERK signaling pathway has been certified to play an essential role in EV71 life cycle and pathogenesis in various cell types. […] To learn whether or not 2d would still act through MEK/ERK pathway as its parent BBR does, the inhibition experiment of EV71 via this signaling pathway was done with 2d using BBR as the reference. […] We can conclude that compound 2d inhibited the replication of EV71 through down-regulating MEK/ERK signaling pathway.
as §1, with “The primary antibodies used in the experiment included β-actin, p-p44/p42 MAPK, p44/p42 MAPK, p-MEK, MEK, p-JNK, JNK, p-AKT, AKT, PI3KIII, LC3B, Beclin-1 (Cell Signaling Technology, Danvers, MA, USA), and EV71-VP1 (Abnova, Taibei, China). HRP-labeled secondary antibodies included goat anti-rabbit and anti-mouse HRP-labeled antibodies (Cell Signaling Technology).” left out

[5] = test system: four different genotype enterovirus 71 (EV71) strains; experiment: CPE assay, summary over the four EV71 strains; type: cell-based; settings: Enterovirus A, EV71, read-out: IC50 values against all tested EV71 strains
Experimental: Thus, all newly synthesized BBR analogues were screened for their anti-EV71 potencies in African green monkey kidney (Vero) cells taking BBR as the positive control. EV71 strains used in the present study include different genotype strains, such as H strain (VR-1432, genotype C2), BrCr strain (VR-1775, genotype A), and JS-52 and SHZH98 (genotype C4). The potency against EV71 strains above mentioned of each tested compound was evaluated by the combination of its IC50 and selectivity index (SI) value as the important therapeutic indication.
The anti-EV71 activities of all tested compounds were detected by the virus-induced CPE assay. Briefly, cells (3 × 10^4 cells/well) were plated into 96-well culture plates and incubated for 16 h. Then, remove the medium and infected cells with EV71 of 100 × TCID50 (50% tissue culture infective doses) in serum-free medium for 1 h at 37 °C. After that, the unbound viruses were removed and various concentrations of tested compounds were supplemented for incubation of another 72 h. […] TC50 defined as the concentration that leads to the 50% of CPE which determined by the same method in 72 h. In addition, the cells were stained the cells were colored with 0.5% crystal violet in 20% ethanol for 15 min at room temperature and the cells were imaged after rinsed with PBS.

COc1ccc2cc3[n+](cc2c1OCC(=O)OCc1ccccc1)CCc1cc2c(cc1-3)OCO2 [2d, 2,3-Methylenedioxy-9-benzyloxyformylmethylenoxy-10-methoxyprotoberberine chloride]
AKT activation [1]: activate AKT | LC3II (marker for autophagy) [1]: decreased | expression of Beclin-1 [1]: could not affect the expression of Beclin-1 | phosphorylation of JNK and PI3KIII proteins [1]: inhibit the phosphorylation of JNK and PI3KIII proteins | IC50 [2]: 14.8 µM | cytotoxicity, in words [3]: lower cytotoxicity | TC50 (median toxic concentration) ([3]; African green monkey, 48 h): 82.8 µM | phosphorylation of MEK and ERK induced by EV71 infection [4]: significantly inhibit the phosphorylation of both MEK and ERK | IC50 [5]: 7.12 to 14.8 µM
